Source: patent US9493506B2 (Enanta Pharmaceuticals, Inc., priority 2010, dated 2016)
pEC50: −log10 of the molar value.

Legend:
Format in all cases: cell-based, hepatitis C virus (genotype 1a-H77)
[1] = tested on: HCV replicon with a D168V mutation in a 1a-H77 background; assay: transient replicon assay, D168V mutation in 1a-H77 background; conditions: Hepatitis C virus, read-out: EC50 in a transient replicon assay with a D168V mutation in a 1a-H77 background
Experimental: (§1) Replicon cell lines can be maintained in Dulbecco's modified Eagles medium (DMEM) containing 100 IU/ml penicillin, […] streptomycin (Invitrogen), […] G418 (Invitrogen) and 10% (v/v) fetal bovine serum (FBS). Replicon-containing cells can be seeded into 96 well plates at a density of 5000 cells per well in 100 μl DMEM containing 5% FBS. The next day, the compound can be initially diluted in dimethyl sulfoxide (DMSO) to generate a 200× stock of the inhibitor in a series of 8 half-log dilutions. The dilution series can then be diluted 100-fold in the medium containing 5% FBS. One hundred microliters of medium with the inhibitor can be added to each well of the overnight cell culture plate already containing 100 μl of DMEM with 5% FBS. In assays where the protein binding effect on inhibitor potency is assessed, the medium from the overnight cell culture plates can be replaced with 200 μl DMEM containing 40% human plasma (Innovative Research) plus 5% FBS as well as compound. The cells can be grown for 4 days in tissue culture incubators. The inhibitory effects of compounds against the replicons can be determined by measuring either the level of luciferase or HCV RNA. The luciferase assay can be conducted using a Luciferase Assay System kit (Promega) following the manufacturer's instructions. Briefly, the cell culture medium is removed and wells are washed with 200 μl of phosphate-buffered saline. To each well Passive Lysis buffer (Promega, Wis.) is added and the plates are incubated for 30 min with rocking to lyse the cells. Luciferin solution (50 μl, Promega) is added, and luciferase activity is measured with a Victor II luminometer (Perkin-Elmer). To determine HCV RNA levels, RNA extractions can be performed using the CellsDirect kit (Invitrogen), and the HCV RNA copy number can be measured using the SuperScript III Platinum One-Step qRT-PCR system (Invitrogen) and primers specific to the HCV 5′ nontranslated region. Cytotoxicity can be determined by the 3-[4,5-dimethylhiazol-2-yl]-2,5-diphenyltetrazolium bromide (MTT) colorimetric assay as follows. Replicon cells is plated in 96-well plates (4000 cells per well), the next day compound dilutions are added as in the activity assay, and the cells are grown in the presence of the inhibitors for 4 days. The MTT solution is diluted in DMEM containing 5% FBS and 60 μl of the solution is added to the cells. After 4 hrs, the cells are solubilized by the addition of 30 […]μl SDS (20% in 0.02 N HCl). The plates are incubated overnight and the optical density can be measured at 570 nm. To determine compounds' EC50 and TD50, luciferase, RNA inhibition and MTT data can be analyzed using the GraphPad Prism 4 software (equation: sigmoidal dose-response—variable slope).
(§2) The 1a-H77 replicon for transient assays further differs from the replicon in the stable cell line in that it contains NS2 through NS5B in the second cistron. The 1b-N strain replicon contains NS3 through NS5B in the second cistron, with adaptive mutations E1202G in NS3 and S2204I in NS5A. Mutagenesis can be performed using the Stratagene QuikChange XL II site-directed mutagenesis kit. Mutants' sequences can be confirmed, plasmids can be linearized with Xba I restriction enzyme and used as template for in vitro transcription reactions to make mutant replicon RNA for transient transfections. In vitro transcription can be performed with the T7 Megascript kit (Ambion).
(§3) Transient replicon transfections can be performed essentially as described by Mo et al. (Antimicrob Agents Chemother (2005) 49(10):4305-4314) with slight modifications. Fifteen micrograms of template RNA can be used to electroporate 3×10^6 cells in a 200 μl volume in a 0.2 cm cuvette. The cells used for transient transfections can be Huh7 cells obtained by curing replicon-containing cells with IFN (Mo et al., supra). Electroporation can be done with a Gene Pulser II (Bio-Rad, CA) at 480V and 25 μF, using two manual pulses. […]

[2] = tested on: HCV replicon with a D168E mutation in a 1a-H77 background; assay: transient replicon assay, D168E mutation in 1a-H77 background; conditions: Hepatitis C virus, read-out: EC50 in a transient replicon assay with a D168E mutation in a 1a-H77 background
Experimental: as §1, §2, §3

[3] = tested on: HCV replicon with a R155K mutation in a 1a-H77 background; assay: transient replicon assay, R155K mutation in 1a-H77 background; conditions: Hepatitis C virus, read-out: EC50 in a transient replicon assay with a R155K mutation in a 1a-H77 background
Experimental: as §1, §2, §3

Compound: CC(C)(C)OC(=O)N[C@H]1CCCCC/C=C\[C@@H]2C[C@@]2(C(=O)NS(=O)(=O)C2CC2)NC(=O)[C@@H]2C[C@@H](Oc3nc4ccccc4nc3C(C)(F)F)CN2C1=O [Example 1, tert-butyl (2R,6S,13aS,14aR,16aS,Z)-14a-(cyclopropylsulfonylcarbamoyl)-2-(3-(1,1-difluoroethyl)quinoxalin-2-yloxy)-5,16-dioxo-1,2,3,5,6,7,8,9,10,11,13a,14,14a,15,16,16a-hexadecahydrocyclopropa[e]pyrrolo[1,2-a][1,4]diazacyclopentadecin-6-ylcarbamate]
- pEC50 [1]: 6.60 to 7.30
- pEC50 [2]: 7.70 to 8.52
- pEC50 [3]: > 9.00

Compound: CC(F)(F)c1nc2ccccc2nc1O[C@@H]1C[C@H]2C(=O)N[C@]3(C(=O)NS(=O)(=O)C4CC4)C[C@H]3/C=C\CCCCC[C@H](NC(=O)c3ccon3)C(=O)N2C1 [Example 3, N-((2R,6S,13aS,14aR,16aS,Z)-14a-(cyclopropylsulfonylcarbamoyl)-2-(3-(1,1-difluoroethyl)quinoxalin-2-yloxy)-5,16-dioxo-1,2,3,5,6,7,8,9,10,11,13a,14,14a,15,16,16a-hexadecahydrocyclopropa[e]pyrrolo[1,2-a][1,4]diazacyclopentadecin-6-yl)isoxazole-3-carboxamide]
- pEC50 [1]: 6.60 to 7.30
- pEC50 [2]: > 8.52
- pEC50 [3]: > 9.00

Compound: CC(C)(C)C(=O)N[C@H]1CCCCC/C=C\[C@@H]2C[C@@]2(C(=O)NS(=O)(=O)C2CC2)NC(=O)[C@@H]2C[C@@H](Oc3nc4ccccc4nc3C(C)(F)F)CN2C1=O [Example 4, (2R,6S,13aS,14aR,16aS,Z)—N-(cyclopropylsulfonyl)-2-(3-(1,1-difluoroethyl)quinoxalin-2-yloxy)-5,16-dioxo-6-pivalamido-1,2,3,5,6,7,8,9,10,11,13a,14,14a,15,16,16a-hexadecahydrocyclopropa[e]pyrrolo[1,2-a][1,4]diazacyclopentadecine-14a-carboxamide]
- pEC50 [1]: 6.60 to 7.30
- pEC50 [2]: 7.70 to 8.52
- pEC50 [3]: 8.00 to 9.00

Compound: CC(F)(F)c1nc2ccccc2nc1O[C@@H]1C[C@H]2C(=O)N[C@]3(C(=O)NS(=O)(=O)C4(C)CC4)C[C@H]3/C=C\CCCCC[C@H](NC(=O)c3ccon3)C(=O)N2C1 [Example 5, N-((2R,6S,13aS,14aR,16aS,Z)-2-(3-(1,1-difluoroethyl)quinoxalin-2-yloxy)-14a-(1-methylcyclopropylsulfonylcarbamoyl)-5,16-dioxo-1,2,3,5,6,7,8,9,10,11,13a,14,14a,15,16,16a-hexadecahydrocyclopropa[e]pyrrolo[1,2-a][1,4]diazacyclopentadecin-6-yl)isoxazole-3-carboxamide]
- pEC50 [1]: > 7.60
- pEC50 [2]: > 8.52
- pEC50 [3]: > 9.00

Compound: Cc1onc(C(=O)N[C@H]2CCCCC/C=C\[C@@H]3C[C@@]3(C(=O)NS(=O)(=O)C3CC3)NC(=O)[C@@H]3C[C@@H](Oc4nc5ccccc5nc4C(C)(F)F)CN3C2=O)c1C [Example 6, N-((2R,6S,13aS,14aR,16aS,Z)-14a-(cyclopropylsulfonylcarbamoyl)-2-(3-(1,1-difluoroethyl)quinoxalin-2-yloxy)-5,16-dioxo-1,2,3,5,6,7,8,9,10,11,13a,14,14a,15,16,16a-hexadecahydrocyclopropa[e]pyrrolo[1,2-a][1,4]diazacyclopentadecin-6-yl)-4,5-dimethylisoxazole-3-carboxamide]
- pEC50 [1]: 6.60 to 7.30
- pEC50 [2]: > 8.52
- pEC50 [3]: 8.00 to 9.00

Compound: Cc1onc(C(=O)N[C@H]2CCCCC/C=C\[C@@H]3C[C@@]3(C(=O)NS(=O)(=O)C3(C)CC3)NC(=O)[C@@H]3C[C@@H](Oc4nc5ccccc5nc4C(C)(F)F)CN3C2=O)c1C [Example 7, N-((2R,6S,13aS,14aR,16aS,Z)-2-(3-(1,1-difluoroethyl)quinoxalin-2-yloxy)-14a-(1-methylcyclopropylsulfonylcarbamoyl)-5,16-dioxo-1,2,3,5,6,7,8,9,10,11,13a,14,14a,15,16,16a-hexadecahydrocyclopropa[e]pyrrolo[1,2-a][1,4]diazacyclopentadecin-6-yl)-4,5-dimethylisoxazole-3-carboxamide]
- pEC50 [1]: 7.30 to 7.60
- pEC50 [2]: > 8.52
- pEC50 [3]: 8.00 to 9.00

Compound: Cc1cnc(C(=O)N[C@H]2CCCCC/C=C\[C@@H]3C[C@@]3(C(=O)NS(=O)(=O)C3CC3)NC(=O)[C@@H]3C[C@@H](Oc4nc5ccccc5nc4C(F)(F)F)CN3C2=O)cn1 [Example 11, (2R,6S,13aS,14aR,16aS,Z)—N-(cyclopropylsulfonyl)-2-(3-(trifluoromethyl)quinoxalin-2-yloxy)-6-(5-methylpyrazine-2-carboxamido)-5,16-dioxo-1,2,3,5,6,7,8,9,10,11,13a,14,14a,15,16,16a-hexadecahydrocyclopropa[e]pyrrolo[1,2-a][1,4]diazacyclopentadecine-14a-carboxamide]
- pEC50 [1]: 6.60 to 7.30
- pEC50 [2]: < 7.00
- pEC50 [3]: 7.60 to 8.00

Compound: Cn1ccc(C(=O)N[C@H]2CCCCC/C=C\[C@@H]3C[C@@]3(C(=O)NS(=O)(=O)C3CC3)NC(=O)[C@@H]3C[C@@H](Oc4nc5ccccc5nc4C(F)(F)F)CN3C2=O)n1 [Example 12]
- pEC50 [1]: 6.00 to 6.60
- pEC50 [2]: 7.00 to 7.30
- pEC50 [3]: 7.60 to 8.00

Compound: Cc1cc(C(=O)N[C@H]2CCCCC/C=C\[C@@H]3C[C@@]3(C(=O)NS(=O)(=O)C3CC3)NC(=O)[C@@H]3C[C@@H](Oc4nc5ccccc5nc4C(F)(F)F)CN3C2=O)[nH]n1 [Example 13]
- pEC50 [1]: 6.00 to 6.60
- pEC50 [2]: < 7.00
- pEC50 [3]: 7.60 to 8.00

Compound: Cc1ccsc1C(=O)N[C@H]1CCCCC/C=C\[C@@H]2C[C@@]2(C(=O)NS(=O)(=O)C2CC2)NC(=O)[C@@H]2C[C@@H](Oc3nc4ccccc4nc3C(F)(F)F)CN2C1=O [Example 14]
- pEC50 [1]: 7.30 to 7.60
- pEC50 [2]: 7.70 to 8.52
- pEC50 [3]: > 9.00

Compound: Cc1cc(C(=O)N[C@H]2CCCCC/C=C\[C@@H]3C[C@@]3(C(=O)NS(=O)(=O)C3(C)CC3)NC(=O)[C@@H]3C[C@@H](Oc4nc5ccccc5nc4C(F)(F)F)CN3C2=O)no1 [Example 17, 5-methyl-N-((2R,6S,13aS,14aR,16aS,Z)-14a-(1-methylcyclopropylsulfonylcarbamoyl)-5,16-dioxo-2-(3-(trifluoromethyl)quinoxalin-2-yloxy)-1,2,3,5,6,7,8,9,10,11,13a,14,14a,15,16,16a-hexadecahydrocyclopropa[e]pyrrolo[1,2-a][1,4]diazacyclopentadecin-6-yl)isoxazole-3-carboxamide]
- pEC50 [1]: 7.30 to 7.60
- pEC50 [2]: 7.70 to 8.52
- pEC50 [3]: > 9.00

Compound: CC(C)[C@@H](C(=O)N[C@H]1CCCCC/C=C\[C@@H]2C[C@@]2(C(=O)NS(=O)(=O)C2CC2)NC(=O)[C@@H]2C[C@@H](Oc3nc4ccccc4nc3C(F)(F)F)CN2C1=O)N1CCCNC1=O [Example 19, (2R,6S,13aS,14aR,16aS,Z)—N-(cyclopropylsulfonyl)-6-((S)-3-methyl-2-(2-oxotetrahydropyrimidin-1(2H)-yl)butanamido)-5,16-dioxo-2-(3-(trifluoromethyl)quinoxalin-2-yloxy)-1,2,3,5,6,7,8,9,10,11,13a,14,14a,15,16,16a-hexadecahydrocyclopropa[e]pyrrolo[1,2-a][1,4]diazacyclopentadecine-14a-carboxamide]
- pEC50 [1]: < 6.00
- pEC50 [2]: < 7.00
- pEC50 [3]: < 7.30
